{"source": "patent US10206904B2", "about": "“Licofelone derivatives and methods of use” (The Board of Regents of the University of Oklahoma, priority 2015, dated 2019)", "key": {"5-LOX": {"target": "5-LOX (Rattus norvegicus, UniProt P12527)", "sequence (P12527 whole entry)": "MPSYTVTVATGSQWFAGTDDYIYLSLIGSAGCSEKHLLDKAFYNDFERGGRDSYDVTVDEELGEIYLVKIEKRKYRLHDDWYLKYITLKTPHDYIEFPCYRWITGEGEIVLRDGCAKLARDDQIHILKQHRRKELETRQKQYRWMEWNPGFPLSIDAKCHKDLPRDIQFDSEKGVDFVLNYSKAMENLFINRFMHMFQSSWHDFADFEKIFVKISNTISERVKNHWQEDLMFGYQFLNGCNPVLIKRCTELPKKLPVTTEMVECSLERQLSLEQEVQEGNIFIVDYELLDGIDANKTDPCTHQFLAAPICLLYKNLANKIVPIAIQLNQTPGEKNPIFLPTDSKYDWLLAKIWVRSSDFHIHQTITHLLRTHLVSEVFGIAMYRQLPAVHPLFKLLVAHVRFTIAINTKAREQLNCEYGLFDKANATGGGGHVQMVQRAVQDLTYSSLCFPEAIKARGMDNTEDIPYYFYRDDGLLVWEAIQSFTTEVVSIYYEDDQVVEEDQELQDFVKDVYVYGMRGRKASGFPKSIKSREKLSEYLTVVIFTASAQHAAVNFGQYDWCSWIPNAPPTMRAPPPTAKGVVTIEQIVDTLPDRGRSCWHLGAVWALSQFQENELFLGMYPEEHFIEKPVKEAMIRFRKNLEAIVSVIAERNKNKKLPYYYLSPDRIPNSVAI", "settings": "ex vivo colon tumor homogenate", "experimental": "(§1) Briefly, colonic tubular adenocarcinomas (ACs) were homogenized in 100 mM Tris-HCl buffer. […] Reaction mixture incubated for 20 min and ^14C-PGE2, 5-^14C-HETE and other 14-C metabolites were extracted and analyzed by Radio-HPLC according to the previously published work."}, "mPGES-1 [1]": {"target": "T1, mPGES-1 (Rattus norvegicus, UniProt Q9JHF3)", "T1 sequence (Q9JHF3 whole entry)": "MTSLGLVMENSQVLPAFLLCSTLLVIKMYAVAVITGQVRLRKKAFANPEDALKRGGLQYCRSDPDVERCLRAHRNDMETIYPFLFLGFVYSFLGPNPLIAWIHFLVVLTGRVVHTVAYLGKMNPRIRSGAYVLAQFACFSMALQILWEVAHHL", "settings": "ex vivo colon tumor homogenate", "experimental": "as §1"}, "COX-1/2 [2]": {"test_system": "COX-1/2", "settings": "ex vivo colon tumor homogenate", "experimental": "as §1"}, "mPGES-1 [3]": {"target": "T1, mPGES-1", "settings": "two weeks, male F344 rats", "experimental": "(§2) Male F344 rats at 8 weeks of age treated with AOM (15 mg/Kg BW) and exposed to 2% DSS for three days. […] Further, the inflammation was scored by following below criteria: […]"}, "COX-1/2 [4]": {"test_system": "COX-1/2", "settings": "two weeks, male F344 rats", "experimental": "as §2"}, "AOM-induced colon tumors": {"test_system": "AOM-induced colon tumors", "settings": "AOM-treated male F344 rats", "experimental": "After 42 weeks of experimental diet feeding and total 52 weeks of experimental duration, the rats were necropsied. After necropsy of the rats, the colonic tumors were analyzed histologically. Histopathological evaluation colonic tumor has been completed by two pathologists independently. Colonic tumors were histopathologically classified to adenomas or adenocarcinomas either exophytic (non-invasive) or endophytic (invasive).\nColonic tumors (CTs) were induced by colon specific carcinogen, azoxymethane (AOM) (15 mg/kg by wt, once weekly for 2 weeks) in F344 rats at 8 weeks' age. […] Rats were killed by CO2 asphyxiation 36 weeks after second AOM and the colons were removed, rinsed in PBS, opened longitudinally, and flattened on a filter paper. The location and size of each tumor were noted. Tumors were removed, snap frozen, or fixed in 10% buffered formalin for 24 hours and transferred to 80% ethanol for histopathological analysis. The number and type of colon tumors (adenoma and adenocarcinoma) were analyzed histologically blinded to treatment groups and compared with control diet fed rat colonic tumors."}}, "note": "Values joined by “and” are separate entries in the source; they are usually repeats but may differ in a detail not shown here. Equal entries are not always repeated. Where two headings read alike, the source gives them in different places.", "data": [{"smiles": "CC1(C)Cc2c(-c3ccccc3)c(-c3ccc(Cl)cc3)c(CC(=O)NCC(=O)O)n2C1", "note": "[LFA-9, licofelone-glycine]", "values": [{"measurement": "% of Inhibition from control, 5LOX (5-14C-HETE from 14C-AA)", "setting": "5-LOX; 2.5 μM", "value": 27, "unit": "%"}, {"measurement": "% of Inhibition from control, 5LOX (5-14C-HETE from 14C-AA)", "setting": "5-LOX; 5.0 μM", "value": 49, "unit": "%"}, {"measurement": "% of Inhibition from control, 5LOX (5-14C-HETE from 14C-AA)", "setting": "5-LOX; 7.5 μM", "value": 68, "unit": "%"}, {"measurement": "% of Inhibition from control, 5LOX (5-14C-HETE from 14C-AA)", "setting": "5-LOX; 10 μM", "value": 89, "unit": "%"}, {"measurement": "% of Inhibition from control, 5LOX (5-14C-HETE from 14C-AA)", "setting": "5-LOX; 20 μM", "value": 97, "unit": "%"}, {"measurement": "% of Inhibition from control, mPGES-1 (14C-PGE2 from 14C-PGH2)", "setting": "mPGES-1 [1]; 2.5 μM", "value": 18, "unit": "%"}, {"measurement": "% of Inhibition from control, mPGES-1 (14C-PGE2 from 14C-PGH2)", "setting": "mPGES-1 [1]; 5.0 μM", "value": 32, "unit": "%"}, {"measurement": "% of Inhibition from control, mPGES-1 (14C-PGE2 from 14C-PGH2)", "setting": "mPGES-1 [1]; 7.5 μM", "value": 57, "unit": "%"}, {"measurement": "% of Inhibition from control, mPGES-1 (14C-PGE2 from 14C-PGH2)", "setting": "mPGES-1 [1]; 10 μM", "value": 78, "unit": "%"}, {"measurement": "% of Inhibition from control, mPGES-1 (14C-PGE2 from 14C-PGH2)", "setting": "mPGES-1 [1]; 20 μM", "value": 83, "unit": "%"}, {"measurement": "% of Inhibition from control, COX-1/2 (14C-PGs and TXs from 14C-AA)", "setting": "COX-1/2 [2]; 2.5 μM", "value": 4, "unit": "%"}, {"measurement": "% of Inhibition from control, COX-1/2 (14C-PGs and TXs from 14C-AA)", "setting": "COX-1/2 [2]; 5.0 μM", "value": 9, "unit": "%"}, {"measurement": "% of Inhibition from control, COX-1/2 (14C-PGs and TXs from 14C-AA)", "setting": "COX-1/2 [2]; 10 μM", "value": 31, "unit": "%"}, {"measurement": "% of Inhibition from control, COX-1/2 (14C-PGs and TXs from 14C-AA)", "setting": "COX-1/2 [2]; 20 μM", "value": 58, "unit": "%"}, {"measurement": "AOM-DSS-Induced mPGES-1 (colonic mucosa)", "setting": "mPGES-1 [3]; 100 ppm in diet", "value": 22.6, "unit": "%^"}, {"measurement": "AOM-DSS-Induced mPGES-1 (colonic mucosa)", "setting": "mPGES-1 [3]; 200 ppm in diet", "value": 33.7, "unit": "%^"}, {"measurement": "AOM-DSS-Induced mPGES-1 (colonic mucosa)", "setting": "mPGES-1 [3]; 400 ppm in diet", "value": 58, "unit": "%"}, {"measurement": "AOM-DSS-Induced mPGES-1 (colonic mucosa)", "setting": "mPGES-1 [3]; 600 ppm in diet", "value": 77, "unit": "%"}, {"measurement": "AOM-DSS-Induced mPGES-1 (colonic mucosa)", "setting": "mPGES-1 [3]; 800 ppm in diet", "value": 83, "unit": "%"}, {"measurement": "AOM-DSS-Induced COX-1/2 (colonic mucosa)", "setting": "COX-1/2 [4]; 100 ppm in diet", "value": 3.8, "unit": "%"}, {"measurement": "AOM-DSS-Induced COX-1/2 (colonic mucosa)", "setting": "COX-1/2 [4]; 200 ppm in diet", "value": 8.9, "unit": "%"}, {"measurement": "AOM-DSS-Induced COX-1/2 (colonic mucosa)", "setting": "COX-1/2 [4]; 400 ppm in diet", "value": 15.7, "unit": "%"}, {"measurement": "AOM-DSS-Induced COX-1/2 (colonic mucosa)", "setting": "COX-1/2 [4]; 600 ppm in diet", "value": 31.3, "unit": "%"}, {"measurement": "AOM-DSS-Induced COX-1/2 (colonic mucosa)", "setting": "COX-1/2 [4]; 800 ppm in diet", "value": 42.6, "unit": "%"}, {"measurement": "% AdCA Inhibition (incidence)", "setting": "AOM-induced colon tumors; 200 ppm in diet", "value": 60, "unit": "%"}, {"measurement": "% AdCA Inhibition (multiplicity)", "setting": "AOM-induced colon tumors; 200 ppm in diet", "value": 77, "unit": "%"}, {"measurement": "% Inv AdCA Inhibition (incidence)", "setting": "AOM-induced colon tumors; 200 ppm in diet", "value": 85.1, "unit": "%"}, {"measurement": "% Inv AdCA Inhibition (multiplicity)", "setting": "AOM-induced colon tumors; 200 ppm in diet", "value": 86.0, "unit": "%"}, {"measurement": "% Non-Inv AdCA Inhibition (incidence)", "setting": "AOM-induced colon tumors; 200 ppm in diet", "value": 63.0, "unit": "%"}, {"measurement": "% Non-Inv AdCA Inhibition (multiplicity)", "setting": "AOM-induced colon tumors; 200 ppm in diet", "value": 72.9, "unit": "%"}, {"measurement": "% adenoma Inhibition (incidence)", "setting": "AOM-induced colon tumors; 200 ppm in diet", "value": 53, "unit": "%"}, {"measurement": "% adenoma Inhibition (multiplicity)", "setting": "AOM-induced colon tumors; 200 ppm in diet", "value": "38.3% and 38.27%"}, {"measurement": "% of CRC Tumor Inhibition (incidence)", "setting": "AOM-induced colon tumors; 200 ppm in diet", "value": 47.5, "unit": "%"}, {"measurement": "% of CRC Tumor Inhibition (multiplicity)", "setting": "AOM-induced colon tumors; 200 ppm in diet", "value": "64% and 64.05%"}, {"measurement": "AdCA Incidence (% Rats with AdCa)", "setting": "AOM-induced colon tumors; 200 ppm in diet", "value": "(33.3%)"}, {"measurement": "AdCA Incidence (rats with AdCa/rats)", "setting": "AOM-induced colon tumors; 200 ppm in diet", "value": "10/30"}, {"measurement": "AdCA Multiplicity (Mean ± SEM)", "setting": "AOM-induced colon tumors; 200 ppm in diet", "value": "0.37±0.07", "unit": "Tumors/Rat"}, {"measurement": "Adenoma Incidence (% Rats with Adenomas)", "setting": "AOM-induced colon tumors; 200 ppm in diet", "value": "(30.0%)"}, {"measurement": "Adenoma Incidence (rats with adenomas/rats)", "setting": "AOM-induced colon tumors; 200 ppm in diet", "value": "9/30"}, {"measurement": "Adenoma Multiplicity (Mean ± SEM)", "setting": "AOM-induced colon tumors; 200 ppm in diet", "value": "0.50±0.07", "unit": "Tumors/Rat"}, {"measurement": "Invasive AdCA Incidence (% Rats with Invasive AdCa)", "setting": "AOM-induced colon tumors; 200 ppm in diet", "value": "(6.66%)"}, {"measurement": "Invasive AdCA Incidence (rats with Invasive AdCa/rats)", "setting": "AOM-induced colon tumors; 200 ppm in diet", "value": "2/30"}, {"measurement": "Invasive AdCA Multiplicity (Mean ± SEM)", "setting": "AOM-induced colon tumors; 200 ppm in diet", "value": "0.07 ± 0.02", "unit": "Tumors/Rat"}, {"measurement": "Multiplicity Total CRC Tumors (Adenoma + AdCa) (Mean ± SEM)", "setting": "AOM-induced colon tumors; 200 ppm in diet", "value": "0.87 ± 0.12", "unit": "Tumors/Rat"}, {"measurement": "Non-Inv AdCa Incidence (% Rats with Non-Inv AdCa)", "setting": "AOM-induced colon tumors; 200 ppm in diet", "value": "(26.7%)"}, {"measurement": "Non-Inv AdCa Incidence (rats with Non-Inv AdCa/rats)", "setting": "AOM-induced colon tumors; 200 ppm in diet", "value": "8/30"}, {"measurement": "Non-Inv AdCa Multiplicity (Mean ± SEM)", "setting": "AOM-induced colon tumors; 200 ppm in diet", "value": "0.30 ± 0.05", "unit": "Tumors/Rat"}, {"measurement": "Total CRC Tumors (Adenoma + AdCa) incidence (% rats)", "setting": "AOM-induced colon tumors; 200 ppm in diet", "value": "(46.6%)"}, {"measurement": "Total CRC Tumors (Adenoma + AdCa) incidence (rats with tumors/rats)", "setting": "AOM-induced colon tumors; 200 ppm in diet", "value": "14/30"}, {"measurement": "% AdCA Inhibition (incidence)", "setting": "AOM-induced colon tumors; 400 ppm in diet", "value": 67.9, "unit": "%"}, {"measurement": "% AdCA Inhibition (multiplicity)", "setting": "AOM-induced colon tumors; 400 ppm in diet", "value": 81.3, "unit": "%"}, {"measurement": "% Inv AdCA Inhibition (incidence)", "setting": "AOM-induced colon tumors; 400 ppm in diet", "value": 77.4, "unit": "%%"}, {"measurement": "% Inv AdCA Inhibition (multiplicity)", "setting": "AOM-induced colon tumors; 400 ppm in diet", "value": 80.0, "unit": "%"}, {"measurement": "% Non-Inv AdCA Inhibition (incidence)", "setting": "AOM-induced colon tumors; 400 ppm in diet", "value": 72.3, "unit": "%"}, {"measurement": "% Non-Inv AdCA Inhibition (multiplicity)", "setting": "AOM-induced colon tumors; 400 ppm in diet", "value": 82.0, "unit": "%"}, {"measurement": "% adenoma Inhibition (incidence)", "setting": "AOM-induced colon tumors; 400 ppm in diet", "value": 53, "unit": "%"}, {"measurement": "% adenoma Inhibition (multiplicity)", "setting": "AOM-induced colon tumors; 400 ppm in diet", "value": 46.9, "unit": "%"}, {"measurement": "% of CRC Tumor Inhibition (incidence)", "setting": "AOM-induced colon tumors; 400 ppm in diet", "value": "55.5% and 55.0%"}, {"measurement": "% of CRC Tumor Inhibition (multiplicity)", "setting": "AOM-induced colon tumors; 400 ppm in diet", "value": "69.1% and 69.08%"}, {"measurement": "AdCA Incidence (% Rats with AdCa)", "setting": "AOM-induced colon tumors; 400 ppm in diet", "value": "(26.7%)"}, {"measurement": "AdCA Incidence (rats with AdCa/rats)", "setting": "AOM-induced colon tumors; 400 ppm in diet", "value": "8/30"}]}]}
